According to publication PMC10951066, “The self-reactive FVIII T cell repertoire in healthy individuals relies on a short set of epitopes and public clonotypes” (Frontiers in Immunology, 2024):

Test system: CD4 T cells from healthy donors
Assay: HLA restriction and FVIII specificity IFN-γ ELISPOT of T cell lines raised with the pool of 18 peptides (four donors)
Format: cell-based, human
Parameters: key to Protein specificty: +: positive T cell responses to both the full-length FVIII protein (protein specificity)
Conditions: for intensity (%): four donors, 87 specific T cell lines in total; for Responding donors (%): four healthy donors, T cell lines amplified with pool of 18 FVIII peptides; for HLA restriction (%) DR / HLA restriction (%) DP: percentage of restricted T cell lines, inhibition higher than 50% of ELISPOT count; for HLA restriction (%) DR: anti-HLA-DR (L243) 10 μg/ml; for Protein specificty: recognition of rFVIII loaded on autologous DCs by peptide-specific T cell lines; for HLA restriction (%) DP: anti-HLA-DP (B7/21) 10 μg/ml
Experimental: T cells were incubated with autologous DCs alone (control) or with DCs incubated with rFVIII (0.2 µM), ovalbumin (3 µM), and KLH (1 µM) or PBMCs for FVIII peptides (10 µg/ml) in MultiScreen 96-well plates (Merck Millipore) previously coated with 2.5 µg/mL of anti-human IFN-γ monoclonal antibody (mAb; 1-D1K; Mabtech). The T cell lines and APCs were plated at equal number for both stimulated and unstimulated control conditions. […] The spot number was determined by using the ELISPOT Reader System (Autoimmun Diagnostika, Ebinger, Germany). HLA restriction was assessed using monoclonal antibodies (10 μg/ml) specific to HLA-DP (B7/21), HLA-DQ (SPVL3), or HLA-DR (L243).
Based on the T cell epitope prediction software NetMHCpan4.0 ([23]), we selected 63 20-mer peptides that are predicted for their ability to bind promiscuously, with a percentile score below 10%, at least four HLA class II molecules from a selection of 15 preponderant HLA-DR alleles in our panel (as shown in ST1). The predicted peptides spread all along the full-length FVIII sequence and account for more than 50% of its amino acid coverage. A total of 16 healthy donors with unrelated HLA typing (ST2) were used as sources of T cells to identify FVIII-specific CD4 T cell epitopes. Specific T cell lines were generated by in vitro T cell culture using FVIII and KLH. The peptide specificity of the T cell lines raised against FVIII was assessed by two independent IFN-γ ELISPOT using peptide pools and individual peptides. All donors responded to rFVIII with a total of 409 identified rFVIII-specific T cell lines (Figure 4A). The mean of CD4 T cell precursors was 6.5 cells/M (Figure 4B). Each of the 63 FVIII peptides induced a T cell response in at least one of the donors tested, among the 16 healthy donors tested, with 872 peptide-specific T cell lines identified (Figure 4C). The CD4 T cell epitopes identified were ranked based on their donor coverage capacity (Figure 4D) and response intensity (Figure 4E). Furthermore, 18 out of 63 FVIII T cell epitopes were responsible for 50% of the total T cell response and 100% of the donor coverage. These immunoprevalent epitopes are located in the A1, A3, C1, and C2 domains of the FVIII protein (ST3). Furthermore, four independent healthy donors were used as sources of T cells to characterize the HLA restriction and to assess the reactivity of T cell lines generated with the 18 peptides toward rFVIII. T cell lines were amplified in vitro for 28 days through stimulation with the pool of 18 peptides and then tested through IFN-γ ELISPOT. All four healthy donors tested responded to the pool of 18 FVIII peptides selected, with a total of 87 specific T cell lines identified. Moreover, 16 out of 18 FVIII peptides in the pool generated a specific T cell response among the four donors. A total of 14 of the T cell peptides were tested for recognition of rFVIII-loaded on autologous DCs, and it was confirmed that they were part of the naturally processed FVIII peptides. HLA restriction was assessed by introducing anti-HLA-DR, anti-HLA-DP, and anti-HLA-DQ antibodies. None of the peptides tested was HLA-DQ restricted. Eight peptides were exclusively HLA-DR-restricted, one peptide was HLA-DP, and seven were promiscuously presented on both HLA-DR and HLA-DP molecules (ST4). […] Furthermore, the 18 FVIII peptides selected were ulteriorly tested in an in vitro binding assay to six HLA-DRB1 molecules (as described in ST5).
Four healthy donors were used as the source of CD4 T cells, which were amplified in vitro with the pool of 18 FVIII peptides selected for study. In an initial IFN-γ ELISPOT assay, we screened each of the 18 peptides individually to identify any positive T cell responses to both the full-length FVIII protein (protein specificity) as well as the specific peptide inducing the response. […]

Sequence	intensity (%)	Responding donors (%)	HLA restriction (%) DR [%]	Protein specificty	HLA restriction (%) DP [%]
YDTVVITLKNMASHPVSLHA [P100-119, 20-mer FVIII peptide, A1 domain]	8%	50	100	+	–
KLARLHYSGSINAWSTKEPF [P2068-2087, 20-mer FVIII peptide, C1 domain]	1,1%	25	100	–	–
LLTRYLRIHPQSWVHQIALR [P2320-2339, 20-mer FVIII peptide, C2 domain]	2,3%	25	75	+	25
SLYISQFIIMYSLDGKKWQT [P2114-2133, 20-mer FVIII peptide, C1 domain]	3,4%	50	66	+	33
HPQSWVHQIALRMEVLGCEA [P2328-2347, 20-mer FVIII peptide, C2 domain]	1,1%	25	100	+	–
KKEEYKMALYNLYPGVFETV [P1986-2005, 20-mer FVIII peptide, A3 domain]	1,1%	25	100	+	–
PPIIARYIRLHPTHYSIRST [P2161-2180]	9,2%	75	81	+	19
LGQFLLFCHISSHQHDGMEA [P322-341, 20-mer FVIII peptide, A1 domain]	4,6%	50	100	+	–
KEPFSWIKVDLLAPMIIHGI [P2084-2103, 20-mer FVIII peptide, C1 domain]	19,5%	100	53	+	47
RHYFIAAVERLWDYGMSSSP [P1715-1734, 20-mer FVIII peptide, A3 domain]	18,4%	75	100	+	–
INGYIMDTLPGLVMAQDQRI [P1940-1959, 20-mer FVIII peptide, A3 domain]	1,1%	25	100	–	–
DHLFNIAKPRPPWMGLLGPT [P75-94, 20-mer FVIII peptide, A1 domain]	1,1%	25	–	+	100
ATRRYYLGAVELSWDYMQSD [P20-39, 20-mer FVIII peptide, A1 domain]	4,6%	50	63	+	37
LSHVDLVKDLNSGLIGALLV [P178-197, 20-mer FVIII peptide, A1 domain]	4,6%	75	50	+	50
VHSIFLEGHTFLVRNHRQAS [P285-304, 20-mer FVIII peptide, A1 domain]	3,4%	50	100	+	–
KARLHLQGRSNAWRPQVNNP [P2226-2245, 20-mer FVIII peptide, C2 domain]	12,6%	50	77	+	23
